Experimental data: patent EP0966963A1, “Use of indigoid bisindole derivatives as CDK1 inhibitors” (Eisenbrand, Gerhard, Prof. Dr., priority 1998, dated 1999)

What was measured:
PKA = conditions: known chemical inhibitors, Meijer 1996; cited from earlier work
CDK4 = CDK4 (Homo sapiens, UniProt P11802); conditions: known chemical inhibitors, Meijer 1996; cited from earlier work
[1] = biological target: Ca^2+- dependent protein kinase; test: PKC inhibition (specificity panel); type: biochemical
[2] = biological target: cAMP-dependent protein kinase; test: PKA inhibition (specificity panel); type: biochemical
p34^cdc2/cyclin B = test: p34cdc2/cyclin B kinase assay (histone H1 phosphorylation, [32P]ATP); type: biochemical, starfish (Marthasterias glacialis); conditions: 1 mg histone H1/ml, 15 µM ATP, 10 min at 30°C
Experimental: J. Biochem., 243, (1997), 527-536). […] After 10 min. incubation at 30°C, 25 μl aliquots of supernatant were spotted onto 2.5 x 3 cm pieces of Whatman P81 phosphocellulose paper, and after 20 sec., the filters were washed five times (for at least 5 min. each time) in a solution of 10 ml phosphoric acid/liter of water. The wet filters were transferred into 6 ml plastic scintillation vials, 5 ml ACS (Amersham) scintillation fluid was added and the radioactivity measured in a Packard scintillation counter.

cdc25 = cdc25 inhibition (specificity panel); type: biochemical

Chain of CDK4 (P11802 whole entry, species assumed): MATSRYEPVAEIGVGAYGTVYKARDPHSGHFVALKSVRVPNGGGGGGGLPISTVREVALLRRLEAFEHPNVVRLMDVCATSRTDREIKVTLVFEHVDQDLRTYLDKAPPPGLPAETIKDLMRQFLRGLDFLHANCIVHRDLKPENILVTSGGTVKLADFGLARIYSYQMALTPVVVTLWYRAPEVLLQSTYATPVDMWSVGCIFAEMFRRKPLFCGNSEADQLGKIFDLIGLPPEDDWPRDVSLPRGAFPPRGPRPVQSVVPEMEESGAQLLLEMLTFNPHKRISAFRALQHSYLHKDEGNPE
Chain of CDK4 (P24385 whole entry partner, species assumed): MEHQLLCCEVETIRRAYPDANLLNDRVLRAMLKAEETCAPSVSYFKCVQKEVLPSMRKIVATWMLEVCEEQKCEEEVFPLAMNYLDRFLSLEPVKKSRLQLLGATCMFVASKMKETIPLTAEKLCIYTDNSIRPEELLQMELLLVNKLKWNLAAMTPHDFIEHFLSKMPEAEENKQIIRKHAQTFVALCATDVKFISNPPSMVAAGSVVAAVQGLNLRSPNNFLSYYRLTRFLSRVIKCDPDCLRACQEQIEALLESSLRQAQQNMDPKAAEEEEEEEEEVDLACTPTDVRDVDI

| SMILES | IC50 (PKA) [µM] | IC50 PKC [1] | IC50 PKA [2] | IC50 (p34^cdc2/cyclin B) [nM] | other results |
| --- | --- | --- | --- | --- | --- |
| COC(=O)[C@@]1(Cc2ccc(O)c(CC=C(C)C)c2)OC(=O)C(O)=C1c1ccc(O)cc1 [Butyrolactone-l] | 260 | – | – | – | IC50 CDK4 (CDK4): no effect |
| O=C1Nc2ccc(I)cc2C1=C1Nc2ccccc2C1=O [Example 2, 5-Iodoindirubine] | – | no Effect | no Effect | – | – |
| O=C1Nc2ccccc2C1=C1Nc2ccccc2C1=NO [Example 10, Indirubine-3'-oxime] | – | – | – | 180 | – |
| CN1CC[C@H](c2c(O)cc(O)c3c(=O)cc(-c4ccccc4Cl)oc23)[C@H](O)C1 [Flavopiridol] | 145 | – | – | – | – |
| O=C1Nc2ccccc2C1=C1Nc2ccccc2C1=O [Example 1, Indirubine] | – | no Effect | no Effect | 2000 | IC50 (cdc25): 150 µM |
